# Laboratory results published in patent US12599136B2, “Substituted isophthalic acid diamides and their use as herbicides” (Bayer Aktiengesellschaft, priority 2020, dated 2026).
# How the values were obtained:
# Format in all cases: in vivo
# Pharbitis purpurea [1] = experiment: Post-emergence herbicidal action against PHBPU; conditions: for Post-emergence action against PHBPU in %: visual assessment about 3 weeks after treatment
# Method in brief: (§1)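 Spray, one-leaf stage: WP or EC compound in water, 600–800 l/ha, 0.2% wetting agent. Plants held about 3 weeks in the greenhouse, then visually rated in percent of kill compared with untreated controls.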
# Abutilon theophrasti [2] = experiment: Pre-emergence herbicidal action against ABUTH; conditions: visual score after 3 weeks vs untreated controls
# Method in brief: (§2)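 Pre-emergence soil-surface spray of formulated compound (WP or EC; 600 to 800 l/ha; 0.2% wetting agent) over seeds sown in sandy loam. After 3 weeks under greenhouse conditions, damage is estimated visually in percent against untreated plants.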
# Pharbitis purpurea [3] = experiment: Pre-emergence herbicidal action against PHBPU; conditions: 320 g/ha; visual score after 3 weeks vs untreated controls
# Method in brief: as §2
# Cyperus esculentus [4] = experiment: Pre-emergence herbicidal action against CYPES; conditions: 320 g/ha; visual score after 3 weeks vs untreated controls
# Method in brief: as §2
# Veronica persica [5] = experiment: Pre-emergence herbicidal action against VERPE; conditions: 320 g/ha
# Method in brief: as §2
# Amaranthus retroflexus [6] = experiment: Post-emergence herbicidal action against AMARE; conditions: visual assessment about 3 weeks after treatment
# Method in brief: as §1
# Echinochloa crus-galli [7] = experiment: Pre-emergence herbicidal action against ECHCG; conditions: visual score after 3 weeks vs untreated controls
# Method in brief: as §2
# Polygonum convolvulus [8] = experiment: Post-emergence herbicidal action against POLCO; conditions: 80 g/ha, visual assessment about 3 weeks after treatment
# Method in brief: as §1
# Veronica persica [9] = experiment: Post-emergence herbicidal action against VERPE; conditions: visual assessment about 3 weeks after treatment
# Method in brief: as §1
# Stellaria media [10] = experiment: Post-emergence herbicidal action against STEME; conditions: for Post-emergence action against STEME in %: visual assessment about 3 weeks after treatment
# Method in brief: as §1
# Hordeum murinum [11] = experiment: Pre-emergence herbicidal action against HORMU; conditions: visual score after 3 weeks vs untreated controls
# Method in brief: as §2
# Cyperus esculentus [12] = experiment: Post-emergence herbicidal action against CYPES; conditions: visual assessment about 3 weeks after treatment
# Method in brief: as §1
# Matricaria inodora [13] = experiment: Post-emergence herbicidal action against MATIN; conditions: for Post-emergence action against MATIN in %: visual assessment about 3 weeks after treatment
# Method in brief: as §1
# Viola tricolor [14] = experiment: Pre-emergence herbicidal action against VIOTR
# Method in brief: as §2
# Setaria viridis [15] = experiment: Pre-emergence herbicidal action against SETVI
# Method in brief: as §2
# Avena fatua [16] = experiment: Pre-emergence herbicidal action against AVEFA; conditions: visual score after 3 weeks vs untreated controls
# Method in brief: as §2
# Stellaria media [17] = experiment: Pre-emergence herbicidal action against STEME
# Method in brief: as §2
# Matricaria inodora [18] = experiment: Pre-emergence herbicidal action against MATIN; conditions: visual score after 3 weeks vs untreated controls
# Method in brief: as §2
# Alopecurus myosuroides [19] = experiment: Pre-emergence herbicidal action against ALOMY; conditions: visual score after 3 weeks vs untreated controls
# Method in brief: as §2
# Polygonum convolvulus [20] = experiment: Pre-emergence herbicidal action against POLCO; conditions: 320 g/ha
# Method in brief: as §2
# Avena fatua [21] = experiment: Post-emergence herbicidal action against AVEFA; conditions: for Post-emergence action against AVEFA in %: visual assessment about 3 weeks after treatment
# Method in brief: as §1
# Hordeum murinum [22] = experiment: Post-emergence herbicidal action against HORMU
# Method in brief: as §1
# Amaranthus retroflexus [23] = experiment: Pre-emergence herbicidal action against AMARE; conditions: visual score after 3 weeks vs untreated controls
# Method in brief: as §2
# Setaria viridis [24] = experiment: Post-emergence herbicidal action against SETVI; conditions: for Post-emergence action against SETVI in %: visual assessment about 3 weeks after treatment
# Method in brief: as §1
# Lolium rigidum [25] = experiment: Pre-emergence herbicidal action against LOLRI
# Method in brief: as §2
# Echinochloa crus-galli [26] = experiment: Post-emergence herbicidal action against ECHCG; conditions: visual assessment about 3 weeks after treatment
# Method in brief: as §1
# Viola tricolor [27] = experiment: Post-emergence herbicidal action against VIOTR
# Method in brief: as §1
# Lolium rigidum [28] = experiment: Post-emergence herbicidal action against LOLRI; conditions: 80 g/ha
# Method in brief: as §1
# Abutilon theophrasti [29] = experiment: Post-emergence herbicidal action against ABUTH
# Method in brief: as §1
# Alopecurus myosuroides [30] = experiment: Post-emergence herbicidal action against ALOMY
# Method in brief: as §1
# [31] = comparative experiment, 5 g a.i./ha
compound,measurement,setting,value
CCn1nnnc1NC(=O)c1ccc(C(F)(F)F)c(C(=O)N(C)C)c1Cl [Example 2-123],Post-emergence action against PHBPU in %,Pharbitis purpurea [1]; 5 g/ha,80%
same,Post-emergence action against PHBPU in %,Pharbitis purpurea [1]; 20 g/ha,90%
same,Post-emergence action against PHBPU in %,Pharbitis purpurea [1]; 80 g/ha,100%
same,Herbicidal action against PHBPU,Pharbitis purpurea [1]; [31],80
same,Pre-emergence action against ABUTH,Abutilon theophrasti [2]; 20 g/ha,100%
same,Pre-emergence action against ABUTH,Abutilon theophrasti [2]; 80 g/ha,100%
same,Pre-emergence action against ABUTH,Abutilon theophrasti [2]; Dosage column 320 g/ha (heading prints 3200 g/ha),100%
same,Pre-emergence action against PHBPU,Pharbitis purpurea [3],80%
same,Pre-emergence action against CYPES,Cyperus esculentus [4],80%
same,Pre-emergence action against VERPE,Veronica persica [5],100%
same,Post-emergence action against AMARE in %,Amaranthus retroflexus [6]; 5 g/ha,100%
same,Post-emergence action against AMARE in %,Amaranthus retroflexus [6]; 20 g/ha,100%
same,Post-emergence action against AMARE in %,Amaranthus retroflexus [6]; 80 g/ha,100%
same,Pre-emergence action against ECHCG,Echinochloa crus-galli [7]; 20 g/ha,80%
same,Pre-emergence action against ECHCG,Echinochloa crus-galli [7]; 80 g/ha,100%
same,Pre-emergence action against ECHCG,Echinochloa crus-galli [7]; 320 g/ha,100%
same,Post-emergence action against POLCO in %,Polygonum convolvulus [8],90%
same,Post-emergence action against VERPE in %,Veronica persica [9]; 20 g/ha,80%
same,Post-emergence action against VERPE in %,Veronica persica [9]; 80 g/ha,100%
same,Post-emergence action against STEME in %,Stellaria media [10]; 5 g/ha,100%
same,Post-emergence action against STEME in %,Stellaria media [10]; 20 g/ha,100%
same,Post-emergence action against STEME in %,Stellaria media [10]; 80 g/ha,100%
same,Herbicidal action against STEME,Stellaria media [10]; [31],100
same,Pre-emergence action against HORMU,Hordeum murinum [11]; 80 g/ha,80%
same,Pre-emergence action against HORMU,Hordeum murinum [11]; 320 g/ha,100%
same,Post-emergence action against CYPES in %,Cyperus esculentus [12]; 5 g/ha,80%
same,Post-emergence action against CYPES in %,Cyperus esculentus [12]; 20 g/ha,80%
same,Post-emergence action against CYPES in %,Cyperus esculentus [12]; 80 g/ha,90%
same,Post-emergence action against MATIN in %,Matricaria inodora [13]; 5 g/ha,90%
same,Post-emergence action against MATIN in %,Matricaria inodora [13]; 20 g/ha,90%
same,Post-emergence action against MATIN in %,Matricaria inodora [13]; 80 g/ha,100%
same,Herbicidal action against MATIN,Matricaria inodora [13]; [31],90
same,Pre-emergence action against VIOTR,Viola tricolor [14]; 80 g/ha,90%
same,Pre-emergence action against VIOTR,Viola tricolor [14]; 320 g/ha,100%
same,Pre-emergence action against SETVI,Setaria viridis [15]; 20 g/ha,90%
same,Pre-emergence action against SETVI,Setaria viridis [15]; 80 g/ha,100%
same,Pre-emergence action against SETVI,Setaria viridis [15]; 320 g/ha,100%
same,Pre-emergence action against AVEFA,Avena fatua [16]; 80 g/ha,90%
same,Pre-emergence action against AVEFA,Avena fatua [16]; 320 g/ha,100%
same,Pre-emergence action against STEME,Stellaria media [17]; 20 g/ha,90%
same,Pre-emergence action against STEME,Stellaria media [17]; 80 g/ha,100%
same,Pre-emergence action against STEME,Stellaria media [17]; 320 g/ha,100%
same,Pre-emergence action against MATIN,Matricaria inodora [18]; 80 g/ha,100%
same,Pre-emergence action against MATIN,Matricaria inodora [18]; 320 g/ha,100%
same,Pre-emergence action against ALOMY,Alopecurus myosuroides [19]; 80 g/ha,90%
same,Pre-emergence action against ALOMY,Alopecurus myosuroides [19]; 320 g/ha,100%
same,Pre-emergence action against POLCO,Polygonum convolvulus [20],80%
same,Post-emergence action against AVEFA in %,Avena fatua [21]; 5 g/ha,80%
same,Post-emergence action against AVEFA in %,Avena fatua [21]; 20 g/ha,100%
same,Post-emergence action against AVEFA in %,Avena fatua [21]; 80 g/ha,100%
same,Herbicidal action against AVEFA,Avena fatua [21]; [31],80
same,Post-emergence action against HORMU in %,Hordeum murinum [22]; 20 g/ha,90%
same,Post-emergence action against HORMU in %,Hordeum murinum [22]; 80 g/ha,100%
same,Pre-emergence action against AMARE,Amaranthus retroflexus [23]; 20 g/ha,90%
same,Pre-emergence action against AMARE,Amaranthus retroflexus [23]; 80 g/ha,100%
same,Pre-emergence action against AMARE,Amaranthus retroflexus [23]; 320 g/ha,100%
same,Post-emergence action against SETVI in %,Setaria viridis [24]; 5 g/ha,100%
same,Post-emergence action against SETVI in %,Setaria viridis [24]; 20 g/ha,100%
same,Post-emergence action against SETVI in %,Setaria viridis [24]; 80 g/ha,100%
same,Herbicidal action against SETVI,Setaria viridis [24]; [31],100
same,Pre-emergence action against LOLRI,Lolium rigidum [25]; 80 g/ha,80%
same,Pre-emergence action against LOLRI,Lolium rigidum [25]; 320 g/ha,100%
same,Post-emergence action against ECHCG in %,Echinochloa crus-galli [26]; 5 g/ha,100%
same,Post-emergence action against ECHCG in %,Echinochloa crus-galli [26]; 20 g/ha,100%
same,Post-emergence action against ECHCG in %,Echinochloa crus-galli [26]; 80 g/ha,100%
same,Post-emergence action against VIOTR in %,Viola tricolor [27]; 20 g/ha,100%
same,Post-emergence action against VIOTR in %,Viola tricolor [27]; 80 g/ha,100%
same,Post-emergence action against LOLRI in %,Lolium rigidum [28],100%
same,Post-emergence action against ABUTH,Abutilon theophrasti [29]; 5 g/ha,100%
same,Post-emergence action against ABUTH,Abutilon theophrasti [29]; 20 g/ha,100%
same,Post-emergence action against ABUTH,Abutilon theophrasti [29]; 80 g/ha,100%
same,Post-emergence action against ALOMY,Alopecurus myosuroides [30]; 5 g/ha,90%
same,Post-emergence action against ALOMY,Alopecurus myosuroides [30]; 20 g/ha,100%
same,Post-emergence action against ALOMY,Alopecurus myosuroides [30]; 80 g/ha,100%
same,Herbicidal action against ALOMY,Alopecurus myosuroides [30]; [31],90
